Measurements published in patent US10273235B2, “Compositions and methods for inhibiting β-lactamase” (LegoChem Biosciences, Inc., priority 2015, dated 2019).
“And” between values parts separate entries of the source, which are not always exact repeats. Identical values can stand only once. Like-named read-outs stand apart in the source and are kept apart here.

Legend:
Assay type in all cases: cell-based
K. pneumoniae 5576 = test: BLI potentiation MIC, K. pneumoniae 5576 (SHV-11, CMY-2, DHA-1, TEM-1); settings: no BLI, incubation 19 h; for MIC: Klebsiella pneumoniae, 5576, 19 h
Protocol: (§1) MIC90 (μg/mL) is the lowest concentration of an antibiotic that will inhibit the visible growth of 90% of microorganisms after incubation as compared with a control group to which the antibiotic is not treated.
(§2) MIC values were measured by the broth microdilution method developed by the Clinical and Laboratory Standards Institute (CLSI) (see CLSI M07-A9, Methods for Dilution Antimicrobial Susceptibility Test for Bacteria that Grow Aerobically; Approved Standard-Ninth Edition (2012): CLSI, Villanova, Pa.). The in vitro antibacterial activity was measured with respect to the following 9 clinical isolates: P. aeruginosa (3 strains); K. pneumoniae (6 strains). The in vitro antibacterial activity of selected compounds was measured with respect to the following 15 clinical isolates: K. pneumoniae (15 strains).

K. pneumoniae 5216 = test: BLI potentiation MIC, K. pneumoniae 5216 (TEM-1A); settings: no BLI, incubation 19 h; for MIC: Klebsiella pneumoniae, 5216, 19 h
Protocol: as §1, §2

K. pneumoniae CL5761 = test: MIC of strain used for extraction of enzymes, K. pneumoniae CL5761 (KPC-3, TEM-216, SHV-5); settings: Klebsiella pneumoniae, CL5761, no BLI
Protocol: as §1, §2

K. pneumoniae NDM-506 = test: BLI potentiation MIC, K. pneumoniae NDM-506; settings: Klebsiella pneumoniae, NDM506, no BLI, incubation 19 h
Protocol: as §1, §2

P. aeruginosa ARC3506 = test: BLI potentiation MIC, P. aeruginosa ARC3506 (VEB-1, OXA-10, OprD−, AmpC); settings: Pseudomonas aeruginosa, ARC3506, no BLI, incubation 19 h
Protocol: as §1, §2

K. pneumoniae 5971(KOX) = test: BLI potentiation MIC, K. pneumoniae 5971(KOX); settings: no BLI, incubation 19 h; for MIC: Klebsiella pneumoniae, 19 h
Protocol: as §1, §2

E. coli TOPDXA048 = test: MIC of strain used for extraction of enzymes, E. coli TOPDXA048 (OXA-48, TEM-116, AmpC (NC_000913)); settings: Escherichia coli
K. pneumoniae MP14 = test: BLI potentiation MIC, K. pneumoniae MP14; settings: no BLI, incubation 19 h; for MIC: Klebsiella pneumoniae, MP14, 19 h
Protocol: as §1, §2

E. aerogenes K9911729 = test: MIC of strain used for extraction of enzymes, E. aerogenes K9911729 (CMY-10, TEM-1, SHV-12, AmpC (DQ478697)); settings: Klebsiella aerogenes, K9911729, no BLI
P. aeruginosa ATCC27853 = test: BLI potentiation MIC (broth microdilution), P. aeruginosa ATCC27853 (PoxB, AmpC); settings: no BLI, incubation 19 h; for MIC: Pseudomonas aeruginosa, ATCC27853, 19 h
Protocol: as §1, §2

P. aeruginosa ARC3514 = test: BLI potentiation MIC, P. aeruginosa ARC3514 (KPC-2, OprD−, AmpC); settings: no BLI, incubation 19 h; for MIC: Pseudomonas aeruginosa, ARC3514, 19 h
Protocol: as §1, §2

E. coli ECO200 = test: MIC of strain used for extraction of enzymes, E. coli ECO200 (NDM-1, TEM-1, CTX-M-15, EC (AmpC), OXA-2 type); settings: Escherichia coli
K. pneumoniae 101 = test: BLI potentiation MIC, K. pneumoniae 101; settings: no BLI, incubation 19 h; for MIC: Klebsiella pneumoniae, 101, 19 h
Protocol: as §1, §2

K. pneumoniae 4248 = test: BLI potentiation MIC, K. pneumoniae 4248 (SHV-11, CTX-M-15, TEM-1, OXA-1); settings: no BLI, incubation 19 h; for MIC: Klebsiella pneumoniae, 4248, 19 h
Protocol: as §1, §2

K. pneumoniae 100 = test: BLI potentiation MIC, K. pneumoniae 100; settings: Klebsiella pneumoniae, 100, no BLI, incubation 19 h
Protocol: as §1, §2

K. pneumoniae KU2 = test: BLI potentiation MIC, K. pneumoniae KU2; settings: Klebsiella pneumoniae, no BLI, incubation 19 h
Protocol: as §1, §2

K. pneumoniae 7586 = test: BLI potentiation MIC, K. pneumoniae 7586; settings: no BLI, incubation 19 h
Protocol: as §1, §2

K. pneumoniae 6839 = test: BLI potentiation MIC, K. pneumoniae 6839 (SHV-11, SHV-12, DHA-1); settings: no BLI, incubation 19 h; for MIC: Klebsiella pneumoniae, 6839, 19 h
Protocol: as §1, §2

E. coli K0519020 = test: MIC of strain used for extraction of enzymes, E. coli K0519020 (CTX-M-15, TEM-1, OXA-1, AmpC (NC_000913)); settings: Escherichia coli, K0519020, no BLI
K. pneumoniae 89 = test: BLI potentiation MIC, K. pneumoniae 89; settings: no BLI, incubation 19 h
Protocol: as §1, §2

K. pneumoniae 5117 = test: BLI potentiation MIC, K. pneumoniae 5117 (SHV-11, TEM-1); settings: no BLI, incubation 19 h; for MIC: Klebsiella pneumoniae, 5117, 19 h
Protocol: as §1, §2

K. pneumoniae 3784 = test: BLI potentiation MIC, K. pneumoniae 3784 (SHV-11, SHV-12, DHA-1); settings: no BLI, incubation 19 h; for MIC: Klebsiella pneumoniae, 3784, 19 h
Protocol: as §1, §2

K. pneumoniae 6540 = test: BLI potentiation MIC, K. pneumoniae 6540; settings: no BLI, incubation 19 h
Protocol: as §1, §2

K. pneumoniae 4006 = test: BLI potentiation MIC, K. pneumoniae 4006 (SHV-12, CTX-M-15, TEM-1, OXA-9); settings: no BLI, incubation 19 h
Protocol: as §1, §2

K. pneumoniae ATCC700603 = test: BLI potentiation MIC, K. pneumoniae ATCC700603 (SHV-3); settings: no BLI, incubation 19 h
Protocol: as §1, §2

[1] = read-out: MIC of LCB10-0200 alone
[2] = read-out: MIC of Meropenem alone

## CC(C)(O/N=C(\C(=O)N[C@@H]1C(=O)N2C(C(=O)[O-])=C(C[n+]3cnc(N)c(NCCNC(=O)c4cc(=O)c(O)cn4O)c3)CS[C@H]12)c1nc(N)sc1Cl)C(=O)O [LCB10-0200]
K. pneumoniae 5576; [1]
  MIC: > 64 µg/mL
K. pneumoniae 5576
  MIC of LCB10-0200 alone: 64 μg/mL and 32 μg/mL
K. pneumoniae 5216; [1]
  MIC: > 64 µg/mL
K. pneumoniae 5216
  MIC of LCB10-0200 alone: 64 μg/mL and 32 μg/mL
K. pneumoniae CL5761; [1]
  MIC: 32 µg/mL
K. pneumoniae NDM-506; [1]
  MIC: > 64 µg/mL
P. aeruginosa ARC3506; [1]
  MIC: 2 µg/mL
K. pneumoniae 5971(KOX); [1]
  MIC: 32 µg/mL
K. pneumoniae 5971(KOX)
  MIC of LCB10-0200 alone: 64 μg/mL
E. coli TOPDXA048; TOPDXA048, read-out: MIC of LCB10-0200 alone
  MIC: 0.25 µg/mL
K. pneumoniae MP14; [1]
  MIC: 0.125 µg/mL
K. pneumoniae MP14
  MIC of LCB10-0200 alone: 0.25 μg/mL
E. aerogenes K9911729; [1]
  MIC: 2 µg/mL
P. aeruginosa ATCC27853; [1]
  MIC: 0.25 µg/mL
P. aeruginosa ATCC27853
  MIC of LCB10-0200 alone: 0.5 μg/mL
P. aeruginosa ARC3514; [1]
  MIC: 0.25 µg/mL
P. aeruginosa ARC3514
  MIC of LCB10-0200 alone: 0.5 μg/mL
E. coli ECO200; ECO200, read-out: MIC of LCB10-0200 alone
  MIC: > 64 µg/mL
K. pneumoniae 101; [1]
  MIC: 16 µg/mL
K. pneumoniae 101
  MIC of LCB10-0200 alone: 32 μg/mL
K. pneumoniae 4248; [1]
  MIC: 2 µg/mL
K. pneumoniae 4248
  MIC of LCB10-0200 alone: 4 μg/mL
K. pneumoniae 100; [1]
  MIC: 0.0625 µg/mL
K. pneumoniae KU2; [1]
  MIC: 32 µg/mL
K. pneumoniae 7586; Klebsiella pneumoniae, 7586, 19 h, read-out: MIC of LCB10-0200 alone
  MIC: 4 µg/mL
K. pneumoniae 7586
  MIC of LCB10-0200 alone: 2 μg/mL
K. pneumoniae 6839; [1]
  MIC: 32 µg/mL
K. pneumoniae 6839
  MIC of LCB10-0200 alone: 16 μg/mL
E. coli K0519020; [1]
  MIC: 64 µg/mL
K. pneumoniae 89; Klebsiella pneumoniae, 89, 19 h, read-out: MIC of LCB10-0200 alone
  MIC: 0.125 µg/mL
K. pneumoniae 89
  MIC of LCB10-0200 alone: 0.0625 μg/mL
K. pneumoniae 5117; [1]
  MIC: 0.125 µg/mL
K. pneumoniae 5117
  MIC of LCB10-0200 alone: 0.25 μg/mL
K. pneumoniae 3784; [1]
  MIC: 32 µg/mL
K. pneumoniae 3784
  MIC of LCB10-0200 alone: 64 μg/mL

## C[C@@H](O)[C@H]1C(=O)N2C(C(=O)O)=C(S[C@@H]3CN[C@H](C(=O)N(C)C)C3)[C@H](C)[C@H]12 [Meropenem]
K. pneumoniae 5576; [2]
  MIC: 1 µg/mL
K. pneumoniae 5576
  MIC of Meropenem alone: 2 µg/mL
K. pneumoniae 5216; [2]
  MIC: 64 µg/mL
K. pneumoniae 5216
  MIC of Meropenem alone: 32 µg/mL
K. pneumoniae CL5761; [2]
  MIC: > 64 µg/mL
K. pneumoniae NDM-506; [2]
  MIC: > 64 µg/mL
P. aeruginosa ARC3506; [2]
  MIC: 64 µg/mL
K. pneumoniae 5971(KOX); [2]
  MIC: 64 µg/mL
K. pneumoniae 5971(KOX)
  MIC of Meropenem alone: 32 µg/mL
E. coli TOPDXA048; TOPDXA048, read-out: MIC of Meropenem alone
  MIC: 0.25 µg/mL
K. pneumoniae MP14; [2]
  MIC: > 64 µg/mL
K. pneumoniae MP14
  MIC of Meropenem alone: 64 µg/mL
E. aerogenes K9911729; [2]
  MIC: 0.5 µg/mL
P. aeruginosa ATCC27853; [2]
  MIC: 2 µg/mL
P. aeruginosa ARC3514; [2]
  MIC: > 64 µg/mL
K. pneumoniae 6540; Klebsiella pneumoniae, 6540, 19 h, read-out: MIC of Meropenem alone
  MIC: 1 µg/mL
K. pneumoniae 6540
  MIC of Meropenem alone: 0.5 µg/mL
E. coli ECO200; ECO200, read-out: MIC of Meropenem alone
  MIC: > 64 µg/mL
K. pneumoniae 101; [2]
  MIC: > 64 µg/mL
K. pneumoniae 101
  MIC of Meropenem alone: 64 µg/mL and 32 µg/mL
K. pneumoniae 4248; [2]
  MIC: 0.125 µg/mL
K. pneumoniae 100; [2]
  MIC: 4 µg/mL
K. pneumoniae 4006; Klebsiella pneumoniae, 4006, 19 h, read-out: MIC of Meropenem alone
  MIC: 0.5 µg/mL
K. pneumoniae 4006
  MIC of Meropenem alone: 1 µg/mL
K. pneumoniae ATCC700603; Klebsiella pneumoniae, ATCC700603, 19 h, read-out: MIC of Meropenem alone
  MIC: 0.125 µg/mL
K. pneumoniae ATCC700603
  MIC of Meropenem alone: 0.25 µg/mL
K. pneumoniae KU2; [2]
  MIC: > 64 µg/mL
K. pneumoniae 6839; [2]
  MIC: 4 µg/mL
K. pneumoniae 6839
  MIC of Meropenem alone: 2 µg/mL
E. coli K0519020; [2]
  MIC: 1 µg/mL
K. pneumoniae 5117; [2]
  MIC: 8 µg/mL
K. pneumoniae 5117
  MIC of Meropenem alone: 4 µg/mL
K. pneumoniae 3784; [2]
  MIC: 2 µg/mL
